What was measured:
[1] = tested on: study subjects; assay: Peroral treatment of study subjects with tetrahydrocarbazole compounds: nocturia frequency, urgency to urinate, frequency of emptying (Examples 4-9); assay type: in vivo, human; conditions: 50 to 150 mg perorally daily as a single dose, schemes of 6 weeks to 6 months
[2] = tested on: study subjects; assay: Peroral treatment of study subjects with tetrahydrocarbazole compounds: chemical (hormonal) castration (Examples 4-9); assay type: in vivo, human; conditions: 50 to 150 mg perorally daily as a single dose, schemes of 6 weeks to 6 months
Experimental: In the course of the present invention, the terms “hormone” and “hormonal” within for instance the terms “hormone castration”, “chemical (hormonal) castration” or “hormone withdrawal symptoms” refer to follicle stimulating hormone (FSH), luteinizing hormone (LH) and/or testosterone. Preferably, chemical (hormonal) castration is a testosterone castration and refers to a testosterone blood level of equal or below 1.2 ng/mL, preferably 0.5 ng/mL.
Study subjects are treated with compound (76) with the following doses according to the following administration schemes: • in a 3 month trial, 75 mg or 150 mg compound (76) administered perorally daily as a single dose on day 2-7 of the menstrual cycle • in a 3 months trial, 75 mg, 100 mg or 150 mg compound (76) administered perorally daily as a single dose on day 2-7 of the menstrual cycle followed by a 3 months treatment-free period • in a 6 months trial, 75 mg or 150 mg compound (76) administered perorally daily as a single dose • 50 mg or 150 mg per compound (76) administered daily as a single dose over 42 days (6 weeks)
Study subjects are treated with compound (68) with the following doses according to the following administration schemes: • in a 3 month trial, 75 mg or 150 mg compound (68) administered perorally daily as a single dose on day 2-7 of the menstrual cycle • in a 3 months trial, 75 mg, 100 mg or 150 mg compound (68) administered perorally daily as a single dose on day 2-7 of the menstrual cycle followed by a 3 months treatment-free period • in a 6 months trial, 75 mg or 150 mg compound (68) administered perorally daily as a single dose • 50 mg or 150 mg per compound (68) administered daily as a single dose over 42 days (6 weeks)
Study subjects are treated with compound 36 with the following doses according to the following administration schemes: • in a 3 month trial, 75 mg or 150 mg compound 36 administered perorally daily as a single dose on day 2-7 of the menstrual cycle • in a 3 months trial, 75 mg, 100 mg or 150 mg compound 36 administered perorally daily as a single dose on day 2-7 of the menstrual cycle followed by a 3 months treatment-free period • in a 6 months trial, 75 mg or 150 mg compound 36 administered perorally daily as a single dose • 50 mg or 150 mg per compound 36 administered daily as a single dose over 42 days (6 weeks)
Study subjects are treated with compound 37 with the following doses according to the following administration schemes: • in a 3 month trial, 75 mg or 150 mg compound 37 administered perorally daily as a single dose on day 2-7 of the menstrual cycle • in a 3 months trial, 75 mg, 100 mg or 150 mg compound 37 administered perorally daily as a single dose on day 2-7 of the menstrual cycle followed by a 3 months treatment-free period • in a 6 months trial, 75 mg or 150 mg compound 37 administered perorally daily as a single dose • 50 mg or 150 mg per compound 37 administered daily as a single dose over 42 days (6 weeks)
Study subjects are treated with compound 52 with the following doses according to the following administration schemes: • in a 3 month trial, 75 mg or 150 mg compound 52 administered perorally daily as a single dose on day 2-7 of the menstrual cycle • in a 3 months trial, 75 mg, 100 mg or 150 mg compound 52 administered perorally daily as a single dose on day 2-7 of the menstrual cycle followed by a 3 months treatment-free period • in a 6 months trial, 75 mg or 150 mg compound 52 administered perorally daily as a single dose • 50 mg or 150 mg per compound 52 administered daily as a single dose over 42 days (6 weeks)

| chemical (hormonal) castration [2] | Compound | nocturia frequency, urgency to urinate and/or frequency of emptying compared to placebo [1] |
| --- | --- | --- |
| successfully prevented | CCC(C)[C@H](NC(=O)Cc1ccccc1F)C(=O)N[C@]1(C(=O)N[C@H](C(N)=S)C(C)CC)CCc2[nH]c3c(Cl)cc(F)cc3c2C1 (stereo partly drawn) [compound (68), (R)-8-chloro-6-fluoro-3-{(S)-2-[2-(2-fluorophenyl)acetylamino]-3-methyl-pentanoylamino}-2,3,4,9-tetrahydro-1H-carbazole-3-carboxylic acid ((S)-2-methyl-1-thiocarbamoylbutyl)amide] | decrease |
| successfully prevented | CCC(C)[C@H](NC(=O)Cc1ccccc1F)C(=O)N[C@]1(C(=O)N[C@H](C(=S)NCN2CCOCC2)C(C)CC)CCc2[nH]c3c(C(F)(F)F)cccc3c2C1 (stereo partly drawn) [Compound 37, (R)-3-{(S)-2-[2-(2-Fluoro-phenyl)-acetylamino]-3-methyl-pentanoylamino}-8-trifluoromethyl-2,3,4,9-tetrahydro-1H-carbazole-3-carboxylic acid {(S)-2-methyl-1-[(morpholin-4-ylmethyl)-thiocarbamoyl]-butyl}-amide] | decrease |
